# Patent publication US20090047221A1 (NIPRI LIMITED, priority 2004, published 2009)
# Test system: cancer cell line MDA-MB-468
# Assay: Combination index with known cancer drugs against proliferation (Calcusyn software)
# Format: cell-based
# Description: A combination index of less than 0.1 indicates very strong synergy; a combination index of 0.1 to 0.3 indicates strong synergism; a combination index of 0.3 to 0.7 indicates synergism; a combination index of 0.7 to 0.85 indicates moderate synergism; a combination index of 0.85 to 0.9 indicates slight synergism and a combination index of 0.9 to 1.1 indicates only very slight synergism, said combination being close to merely additive.
# The combination index may be calculated using calcusyn software.
# Evidence of synergy was determined by calculation of the combination index using Calcusyn software.
# The MTT assay was used initially to determine the anti-proliferative activity of the test compounds. In the MTT assay a yellow thiazolyl blue tetrazolium bromide salt (MTT) is reduced, in metabolically active cells, to form insoluble purple formazan crystals which are solubilised by the addition of dimethyl sulphoxide (DMSO). Absorbance readings can then be determined spectrophotometrically and a relationship established between control untreated cells and drug treated cells enabling the quantification of anti-proliferative changes as a result of drug treatment (Mosmann, 1983).
# Wells containing medium only were used as blanks. Following the attachment period, cells were treated with appropriate drug concentrations (20 μl added per well). 40 mg/ml stock drug solutions, in DMSO, were stored at −20° C. and on the day of drug treatment working solutions of 4 mg/ml were prepared in medium which was further diluted to achieve final drug dilution volumes of 20 μl. Initial screening was determined over a concentration range of 1-200 μg/ml. For potent compounds the assay was repeated over a narrower concentration range to determine accurate IC50 values. Cells were exposed to drug for 96 h continual exposure (37° C., 5% CO2). Following the 96 h incubation, 50 μl MTT solution (1 g MTT/500 ml PBS) was added per well and the plates were further incubated for 4 h (37° C., 5% CO2). After incubation the MTT and medium was removed from the wells and 100 μl DMSO added per well. Plates were agitated on an orbital mixer platform (Stuart Scientific) for 10 minutes. Absorbance was measured at 570 nm on a Biotrak II (Amersham Bioscience) plate reader. IC50 values were calculated comparing control and drug treated cells.
smiles,measurement,setting,value
"CCCCCCNC(=O)c1ccc2c(c1O)C(=O)OC(C)C2 (racemic) [ALM-49, Hexyl Amide]",Combination Index,"Cisplatin 1 × 10^−2 mol/L, ALM compound 0.1 μg/ml",0.003
same,Combination Index,"Cisplatin 1 × 10^−2 mol/L, ALM compound 0.5 μg/ml",0.002
same,Combination Index,"Cisplatin 1 × 10^−2 mol/L, ALM compound 1.0 μg/ml",0.009
same,Combination Index,"Cisplatin 1 × 10^−2 mol/L, ALM compound 5.0 μg/ml",0.051
same,Combination Index,"Cisplatin 1 × 10^−3 mol/L, ALM compound 0.1 μg/ml",No
same,Combination Index,"Cisplatin 1 × 10^−3 mol/L, ALM compound 0.5 μg/ml",No
same,Combination Index,"Cisplatin 1 × 10^−3 mol/L, ALM compound 1.0 μg/ml",No
same,Combination Index,"Cisplatin 1 × 10^−3 mol/L, ALM compound 5.0 μg/ml",No
same,Combination Index,"Cisplatin 1 × 10^−4 mol/L, ALM compound 0.1 μg/ml",No
same,Combination Index,"Cisplatin 1 × 10^−4 mol/L, ALM compound 0.5 μg/ml",No
same,Combination Index,"Cisplatin 1 × 10^−4 mol/L, ALM compound 1.0 μg/ml",No
same,Combination Index,"Cisplatin 1 × 10^−4 mol/L, ALM compound 5.0 μg/ml",No
same,Combination Index,"Cisplatin 1 × 10^−5 mol/L, ALM compound 0.1 μg/ml",No
same,Combination Index,"Cisplatin 1 × 10^−5 mol/L, ALM compound 0.5 μg/ml",No
same,Combination Index,"Cisplatin 1 × 10^−5 mol/L, ALM compound 1.0 μg/ml",No
same,Combination Index,"Cisplatin 1 × 10^−5 mol/L, ALM compound 5.0 μg/ml",No
same,Combination Index,"Cisplatin 1 × 10^−6 mol/L, ALM compound 0.1 μg/ml",No
same,Combination Index,"Cisplatin 1 × 10^−6 mol/L, ALM compound 0.5 μg/ml",No
same,Combination Index,"Cisplatin 1 × 10^−6 mol/L, ALM compound 1.0 μg/ml",No
same,Combination Index,"Cisplatin 1 × 10^−6 mol/L, ALM compound 5.0 μg/ml",No
same,Combination Index,"Cisplatin 1 × 10^−7 mol/L, ALM compound 0.1 μg/ml",0.625
same,Combination Index,"Cisplatin 1 × 10^−7 mol/L, ALM compound 0.5 μg/ml",No
same,Combination Index,"Cisplatin 1 × 10^−7 mol/L, ALM compound 1.0 μg/ml",No
same,Combination Index,"Cisplatin 1 × 10^−7 mol/L, ALM compound 5.0 μg/ml",No
same,Combination Index,"Cisplatin 1 × 10^−8 mol/L, ALM compound 0.1 μg/ml",0.119
same,Combination Index,"Cisplatin 1 × 10^−8 mol/L, ALM compound 0.5 μg/ml",No
same,Combination Index,"Cisplatin 1 × 10^−8 mol/L, ALM compound 1.0 μg/ml",No
same,Combination Index,"Cisplatin 1 × 10^−8 mol/L, ALM compound 5.0 μg/ml",No
same,Combination Index,"Cisplatin 1 × 10^−9 mol/L, ALM compound 0.1 μg/ml",0.487
same,Combination Index,"Cisplatin 1 × 10^−9 mol/L, ALM compound 0.5 μg/ml",No
same,Combination Index,"Cisplatin 1 × 10^−9 mol/L, ALM compound 1.0 μg/ml",No
same,Combination Index,"Cisplatin 1 × 10^−9 mol/L, ALM compound 5.0 μg/ml",No
same,Combination Index,"Doxorubicin 1 × 10^−4 mol/L, ALM compound 0.1 μg/ml",No
same,Combination Index,"Doxorubicin 1 × 10^−4 mol/L, ALM compound 0.5 μg/ml",No
same,Combination Index,"Doxorubicin 1 × 10^−4 mol/L, ALM compound 1.0 μg/ml",No
same,Combination Index,"Doxorubicin 1 × 10^−4 mol/L, ALM compound 5.0 μg/ml",0.968
same,Combination Index,"Doxorubicin 1 × 10^−5 mol/L, ALM compound 0.1 μg/ml",0.410
same,Combination Index,"Doxorubicin 1 × 10^−5 mol/L, ALM compound 0.5 μg/ml",0.436
same,Combination Index,"Doxorubicin 1 × 10^−5 mol/L, ALM compound 1.0 μg/ml",0.438
same,Combination Index,"Doxorubicin 1 × 10^−5 mol/L, ALM compound 5.0 μg/ml",0.720
same,Combination Index,"Etoposide 1 × 10^−4 mol/L, ALM compound 0.1 μg/ml",0.385
same,Combination Index,"Etoposide 1 × 10^−4 mol/L, ALM compound 0.5 μg/ml",0.234
same,Combination Index,"Etoposide 1 × 10^−4 mol/L, ALM compound 1.0 μg/ml",0.210
same,Combination Index,"Etoposide 1 × 10^−4 mol/L, ALM compound 5.0 μg/ml",0.175
same,Combination Index,"Etoposide 1 × 10^−5 mol/L, ALM compound 0.1 μg/ml",1.184
same,Combination Index,"Etoposide 1 × 10^−5 mol/L, ALM compound 0.5 μg/ml",0.659
same,Combination Index,"Etoposide 1 × 10^−5 mol/L, ALM compound 1.0 μg/ml",1.065
same,Combination Index,"Etoposide 1 × 10^−5 mol/L, ALM compound 5.0 μg/ml",0.941
same,Combination Index,"Etoposide 1 × 10^−6 mol/L, ALM compound 0.1 μg/ml",No
same,Combination Index,"Etoposide 1 × 10^−6 mol/L, ALM compound 0.5 μg/ml",0.806
same,Combination Index,"Etoposide 1 × 10^−6 mol/L, ALM compound 1.0 μg/ml",No
same,Combination Index,"Etoposide 1 × 10^−6 mol/L, ALM compound 5.0 μg/ml",No
same,Combination Index,"Etoposide 1 × 10^−7 mol/L, ALM compound 0.1 μg/ml",1.167
same,Combination Index,"Etoposide 1 × 10^−7 mol/L, ALM compound 0.5 μg/ml",0.78
same,Combination Index,"Etoposide 1 × 10^−7 mol/L, ALM compound 1.0 μg/ml",No
same,Combination Index,"Etoposide 1 × 10^−7 mol/L, ALM compound 5.0 μg/ml",No
same,Combination Index,"Etoposide 1 × 10^−8 mol/L, ALM compound 0.1 μg/ml",No
same,Combination Index,"Etoposide 1 × 10^−8 mol/L, ALM compound 0.5 μg/ml",No
same,Combination Index,"Etoposide 1 × 10^−8 mol/L, ALM compound 1.0 μg/ml",No
same,Combination Index,"Etoposide 1 × 10^−8 mol/L, ALM compound 5.0 μg/ml",No
same,Combination Index,"Etoposide 1 × 10^−9 mol/L, ALM compound 0.1 μg/ml",0.836
same,Combination Index,"Etoposide 1 × 10^−9 mol/L, ALM compound 0.5 μg/ml",No
same,Combination Index,"Etoposide 1 × 10^−9 mol/L, ALM compound 1.0 μg/ml",No
same,Combination Index,"Etoposide 1 × 10^−9 mol/L, ALM compound 5.0 μg/ml",No
same,Combination Index,"Etoposide 1 × 10^−10 mol/L, ALM compound 0.1 μg/ml",0.344
same,Combination Index,"Etoposide 1 × 10^−10 mol/L, ALM compound 0.5 μg/ml",No
same,Combination Index,"Etoposide 1 × 10^−10 mol/L, ALM compound 1.0 μg/ml",No
same,Combination Index,"Etoposide 1 × 10^−10 mol/L, ALM compound 5.0 μg/ml",No
same,Combination Index,"Irinotecan 1 × 10^−3 mol/L, ALM compound 0.1 μg/ml",No
same,Combination Index,"Irinotecan 1 × 10^−3 mol/L, ALM compound 0.5 μg/ml",0.606
same,Combination Index,"Irinotecan 1 × 10^−3 mol/L, ALM compound 1.0 μg/ml",0.715
same,Combination Index,"Irinotecan 1 × 10^−3 mol/L, ALM compound 5.0 μg/ml",0.557
same,Combination Index,"Irinotecan 1 × 10^−4 mol/L, ALM compound 0.1 μg/ml",0.029
same,Combination Index,"Irinotecan 1 × 10^−4 mol/L, ALM compound 0.5 μg/ml",0.019
same,Combination Index,"Irinotecan 1 × 10^−4 mol/L, ALM compound 1.0 μg/ml",0042
same,Combination Index,"Irinotecan 1 × 10^−4 mol/L, ALM compound 5.0 μg/ml",0.042
same,Combination Index,"Irinotecan 1 × 10^−5 mol/L, ALM compound 0.1 μg/ml",No
same,Combination Index,"Irinotecan 1 × 10^−5 mol/L, ALM compound 0.5 μg/ml",No
same,Combination Index,"Irinotecan 1 × 10^−5 mol/L, ALM compound 1.0 μg/ml",No
same,Combination Index,"Irinotecan 1 × 10^−5 mol/L, ALM compound 5.0 μg/ml",No
same,Combination Index,"Irinotecan 1 × 10^−6 mol/L, ALM compound 0.1 μg/ml",No
same,Combination Index,"Irinotecan 1 × 10^−6 mol/L, ALM compound 0.5 μg/ml",No
same,Combination Index,"Irinotecan 1 × 10^−6 mol/L, ALM compound 1.0 μg/ml",No
same,Combination Index,"Irinotecan 1 × 10^−6 mol/L, ALM compound 5.0 μg/ml",No
same,Combination Index,"Irinotecan 1 × 10^−7 mol/L, ALM compound 0.1 μg/ml",No
same,Combination Index,"Irinotecan 1 × 10^−7 mol/L, ALM compound 0.5 μg/ml",No
same,Combination Index,"Irinotecan 1 × 10^−7 mol/L, ALM compound 1.0 μg/ml",No
same,Combination Index,"Irinotecan 1 × 10^−7 mol/L, ALM compound 5.0 μg/ml",No
same,Combination Index,"Irinotecan 1 × 10^−8 mol/L, ALM compound 0.1 μg/ml",No
same,Combination Index,"Irinotecan 1 × 10^−8 mol/L, ALM compound 0.5 μg/ml",No
same,Combination Index,"Irinotecan 1 × 10^−8 mol/L, ALM compound 1.0 μg/ml",No
same,Combination Index,"Irinotecan 1 × 10^−8 mol/L, ALM compound 5.0 μg/ml",No
same,Combination Index,"Irinotecan 1 × 10^−9 mol/L, ALM compound 0.1 μg/ml",No
same,Combination Index,"Irinotecan 1 × 10^−9 mol/L, ALM compound 0.5 μg/ml",No
same,Combination Index,"Irinotecan 1 × 10^−9 mol/L, ALM compound 1.0 μg/ml",No
same,Combination Index,"Irinotecan 1 × 10^−9 mol/L, ALM compound 5.0 μg/ml",No
same,Combination Index,"Irinotecan 1 × 10^−10 mol/L, ALM compound 0.1 μg/ml",No
same,Combination Index,"Irinotecan 1 × 10^−10 mol/L, ALM compound 0.5 μg/ml",No
same,Combination Index,"Irinotecan 1 × 10^−10 mol/L, ALM compound 1.0 μg/ml",No
same,Combination Index,"Irinotecan 1 × 10^−10 mol/L, ALM compound 5.0 μg/ml",No
